From ChEMBL document CHEMBL3867479, “Multiple biological activities and molecular docking studies of newly synthesized 3-(pyridin-4-yl)-1H-pyrazole-5-carboxamide chalcone hybrids” (Bioorg Med Chem Lett, 2016) come the findings set out here.

Test [1] is described as follows: Antioxidant activity assessed as anti-inflammatory activity by measuring decrease in bovine serum albumin denaturation at 10 to 500 uM. The format is functional.
Test [2] is described as follows: Antioxidant activity assessed as DPPH free radical scavenging activity at 100 uM by UV-Vis spectrophotometric analysis. The format is functional. In general terms: Loss of DPPH colour is used to gauge radical scavenging.
A further test relates to Streptococcus pyogenes. The test is described as follows: Antibacterial activity against Streptococcus pyogenes ATCC 12358 after 24 hrs by well diffusion method. In kind it is functional. (In general: In agar diffusion tests the substance spreads into inoculated agar from a disc or well.)
For the next test, the system named is Erythrocyte. The test is described as follows: Antiinflammatory activity in human RBC at 10 to 500 uM by membrane stabilization method. In kind it is functional, cell-based.
In another test the test system is Pseudomonas aeruginosa. The test is described as follows: Antibacterial activity against Pseudomonas aeruginosa ATCC 10145 after 24 hrs by well diffusion method. The format is functional.
Test [3] can be described thus: Antioxidant activity assessed as H2O2 free radical scavenging activity at 100 uM by UV-Vis spectrophotometric analysis. The format is functional.
Another test has as its system Staphylococcus aureus. The test is described as follows: Antibacterial activity against Staphylococcus aureus ATCC 11632 after 24 hrs by well diffusion method. In kind it is functional.
Another test concerns Klebsiella pneumoniae. The test is described as follows: Antibacterial activity against Klebsiella pneumoniae ATCC 10031 after 24 hrs by well diffusion method. The format is functional.

Active and inactive are the calls of the source. No cut-off for these calls is given here.

As a reminder, the IC50 is the concentration at which inhibition is half-maximal. Take `O=C(/C=C/c1ccccc1Cl)c1cccc(NC(=O)c2cc(-c3ccncc3)n[nH]2)c1`: the outcome (in test [1]; in the test on Erythrocyte) was Active. Besides, the IC50 in test [2] is 27.7 µM; in test [3], 79.8 µM. Besides, the “inhibition zone (IZ)” value turned out to be 7.4 mm with Streptococcus pyogenes and 8.3 mm in the test with Pseudomonas aeruginosa.
With `O=C(/C=C/c1cccc2ccccc12)c1cccc(NC(=O)c2cc(-c3ccncc3)n[nH]2)c1`, the outcome (in test [1]; with Erythrocyte) was Active. Besides, the values for the IC50 in test [2] and in test [3] were 64.5 µM and 72.1 µM, respectively. Moreover, the “inhibition zone (IZ)” value in the test with Streptococcus pyogenes is on record as 15.4 mm; in the test on Pseudomonas aeruginosa, 6.3 mm; in the test with Staphylococcus aureus, 12.3 mm.
With `O=C(/C=C/c1ccccc1)c1ccccc1` [CHALCONE], the results for the IC50 in test [2] and in test [3] were 70.9 µM and 98.1 µM, respectively. The “inhibition zone (IZ)” value was 6.5 mm in the test with Streptococcus pyogenes, 5 mm in the test with Klebsiella pneumoniae, 7 mm in the test on Pseudomonas aeruginosa and 6 mm with Staphylococcus aureus. Further, in the test with Erythrocyte, the outcome was Active.
Consider `COc1ccccc1/C=C/C(=O)c1cccc(NC(=O)c2cc(-c3ccncc3)n[nH]2)c1`, for which the results for the IC50 in test [2] and in test [3] were 41.7 µM and 56.7 µM, respectively. Also, the “inhibition zone (IZ)” value in the test on Streptococcus pyogenes was found to be 9.7 mm; in the test on Pseudomonas aeruginosa, 8.8 mm; in the test with Staphylococcus aureus it was 6.8 mm. In the test with Erythrocyte, the result was Active.
Regarding `O=C(/C=C/c1ccc(F)cc1)c1cccc(NC(=O)c2cc(-c3ccncc3)n[nH]2)c1`, the IC50 came out at 56 µM in test [2] and 58.7 µM in test [3]. The outcome in the test on Erythrocyte was Active. Further, the figures for the “inhibition zone (IZ)” value in the test with Pseudomonas aeruginosa and in the test with Staphylococcus aureus were 12.1 mm and 5.4 mm, respectively.
In the case of `O=C(/C=C/c1ccccc1)c1cccc(NC(=O)c2cc(-c3ccncc3)n[nH]2)c1`, the IC50 in test [2] was determined as 67.1 µM; in test [3] it was 71.5 µM. Besides, the “inhibition zone (IZ)” value with Streptococcus pyogenes was found to be 13.2 mm; in the test with Pseudomonas aeruginosa it was 9.5 mm; in the test on Staphylococcus aureus, 7.5 mm. Further, the result in the test with Erythrocyte was Active.
With `CC(C)c1ccc(/C=C/C(=O)c2cccc(NC(=O)c3cc(-c4ccncc4)n[nH]3)c2)cc1`, the result (in test [1]; in the test on Erythrocyte) was Active. For the same molecule, the IC50 in test [2] was found to be 52.3 µM; in test [3], 60.2 µM. In addition, the figures for the “inhibition zone (IZ)” value in the test with Streptococcus pyogenes, in the test with Pseudomonas aeruginosa and in the test with Staphylococcus aureus were 9.4 mm, 9.6 mm and 6.8 mm, respectively.
Take `O=C(/C=C/c1ccc(Cl)cc1Cl)c1cccc(NC(=O)c2cc(-c3ccncc3)n[nH]2)c1`: the outcome (in test [1]; in the test on Erythrocyte) was Active. For the same molecule, the IC50 in test [2] was found to be 35 µM; in test [3], 80.9 µM. Besides, the “inhibition zone (IZ)” value in the test on Streptococcus pyogenes is given as 15.5 mm; in the test on Klebsiella pneumoniae, 6.8 mm; in the test on Pseudomonas aeruginosa, 12.2 mm; in the test with Staphylococcus aureus, 17.5 mm.
Turning to `O=C(/C=C/c1ccco1)c1cccc(NC(=O)c2cc(-c3ccncc3)n[nH]2)c1`, the result (in test [1]; with Erythrocyte) was Active. In addition, the results for the IC50 in test [2] and in test [3] were 41.8 µM and 72.3 µM, respectively. Also, the “inhibition zone (IZ)” value is on record as 13.2 mm with Streptococcus pyogenes, 5.8 mm in the test with Klebsiella pneumoniae, 5.7 mm in the test with Pseudomonas aeruginosa and 10.7 mm in the test on Staphylococcus aureus.
For `CN(C)c1ccc(/C=C/C(=O)c2cccc(NC(=O)c3cc(-c4ccncc4)n[nH]3)c2)cc1`, the outcome (in test [1]; in the test with Erythrocyte) was Active. Further, the results for the IC50 in test [2] and in test [3] were 41.9 µM and 60.9 µM, respectively. In addition, the “inhibition zone (IZ)” value in the test with Streptococcus pyogenes is 12.4 mm; in the test on Klebsiella pneumoniae it was 5.9 mm; in the test with Pseudomonas aeruginosa, 10.5 mm; in the test on Staphylococcus aureus, 7.8 mm.
As for `COc1ccc(/C=C/C(=O)c2cccc(NC(=O)c3cc(-c4ccncc4)n[nH]3)c2)cc1`, the IC50 in test [2] was 38.4 µM; in test [3], 54.6 µM. For the same molecule, the “inhibition zone (IZ)” value with Streptococcus pyogenes was 10.6 mm; in the test on Klebsiella pneumoniae, 5.2 mm; in the test with Pseudomonas aeruginosa, 12.5 mm; with Staphylococcus aureus it was 4.5 mm. Further, the result in the test on Erythrocyte was Active.
As to `O=C(/C=C/c1ccc(Cl)cc1)c1cccc(NC(=O)c2cc(-c3ccncc3)n[nH]2)c1`, the result (in test [1]; with Erythrocyte) was Active. Moreover, the values for the IC50 in test [2] and in test [3] were 63.9 µM and 78.9 µM, respectively. For the same molecule, the “inhibition zone (IZ)” value in the test with Streptococcus pyogenes turned out to be 15.3 mm; in the test with Pseudomonas aeruginosa, 10.2 mm; with Staphylococcus aureus, 12.3 mm.
Regarding `O=C(/C=C/c1cccs1)c1cccc(NC(=O)c2cc(-c3ccncc3)n[nH]2)c1`, the outcome (in test [1]; in the test with Erythrocyte) was Active. Besides, the IC50 in test [2] was 27.6 µM; in test [3], 70 µM. The “inhibition zone (IZ)” value is recorded as 13.5 mm with Streptococcus pyogenes, 7.5 mm in the test on Klebsiella pneumoniae, 8.6 mm with Pseudomonas aeruginosa and 15.4 mm in the test on Staphylococcus aureus.
As to `O=C(/C=C/c1ccc([N+](=O)[O-])cc1)c1cccc(NC(=O)c2cc(-c3ccncc3)n[nH]2)c1`, the IC50 in test [2] is 52.8 µM; in test [3], 64.6 µM. Moreover, the results for the “inhibition zone (IZ)” value with Streptococcus pyogenes, with Pseudomonas aeruginosa and in the test on Staphylococcus aureus were 19.3 mm, 10.4 mm and 20.2 mm, respectively. For the same molecule, the outcome in the test on Erythrocyte was Active.
`COc1cc(/C=C/C(=O)c2cccc(NC(=O)c3cc(-c4ccncc4)n[nH]3)c2)cc(OC)c1OC`: the outcome (in test [1]; in the test with Erythrocyte) was Active. The IC50 stood at 54.5 µM in test [2] and 52.9 µM in test [3]. Further, the “inhibition zone (IZ)” value in the test with Streptococcus pyogenes was found to be 11.6 mm; with Pseudomonas aeruginosa it was 5.2 mm; in the test with Staphylococcus aureus, 12.6 mm.
As to `Cc1ccc(/C=C/C(=O)c2cccc(NC(=O)c3cc(-c4ccncc4)n[nH]3)c2)cc1`, the IC50 in test [2] is 69.4 µM; in test [3] it was 64.6 µM. Further, the figures for the “inhibition zone (IZ)” value in the test with Streptococcus pyogenes, in the test with Pseudomonas aeruginosa and in the test with Staphylococcus aureus were 7.9 mm, 7.8 mm and 5.9 mm, respectively. For the same molecule, in the test with Erythrocyte, the result was Active.
Take `NC(=O)c1cc(-c2ccncc2)n[nH]1`: the IC50 in test [2] turned out to be 82.1 µM; in test [3], 89.1 µM. Further, the “inhibition zone (IZ)” value in the test on Streptococcus pyogenes was 6 mm; with Klebsiella pneumoniae it was 5 mm; with Pseudomonas aeruginosa it was 4 mm; in the test on Staphylococcus aureus it was 5 mm. The outcome in the test with Erythrocyte was Active.
